From US20160046618A1, “Cyclopropyl Fused Thiazin-2-Amine Compounds as Beta-Secretase Inhibitors and Methods of Use” (AMGEN INC., priority 2014, published 2016)

Key:
human recombinant BACE2 = human recombinant BACE2 (Homo sapiens (Human), UniProt Q9Y5Z0); assay: In vitro enzymatic BACE2 FRET assay; assay type: biochemical; conditions: read-out: IC50 IP (μM) BACE2 enzyme
Procedure, shortened: (§1)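 Reactions were initiated by adding 50 nM of a peptide carrying fluorophore and quencher on opposite sides of the cleavage site and ran for one hour. Tris buffer then brought the pH to neutrality, ending the reaction, and fluorescence was measured (488 nm excitation, 590 nm emission).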

Recombinant Cat D = Recombinant Cat D (Homo sapiens (Human), UniProt P07339); assay: In vitro enzymatic Cathepsin D (Cat D) FRET assay; assay type: biochemical; conditions: read-out: IC50 IP (μM) CatD
Procedure, shortened: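 Recombinant Cat D expressed in CHO cells, assayed in 0.05 M citrate pH 3.5 with 5 mM CHAPS and 10% DMSO final. Reaction started with 20 nM FRET peptide substrate, incubated one hour, then stopped by Tris buffer to neutral pH; fluorescence read at ex 500/em 580 nm.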

[1] = tested on: Aβ40 in conditioned medium of cells stably expressing Amyloid Precursor Protein (APP); assay: In vitro BACE-1 cell-based assay (Aβ40 sandwich ELISA); conditions: read-out: IC50 IP (μM) BACE1 cell
Procedure, shortened: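 Aβ40 in supernatants measured by time-resolved fluorescence sandwich ELISA, with pAb40 as capture and biotin-6E10 as detector antibody, each incubated at 4 °C.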

human recombinant BACE1 = human recombinant BACE1 (Homo sapiens (Human), UniProt P56817); assay: In vitro enzymatic BACE1 FRET assay; assay type: biochemical; conditions: read-out: IC50 IP (μM) BACE1 enzyme
Procedure, shortened: as §1

Sequence of human recombinant BACE2 (Q9Y5Z0 63-518): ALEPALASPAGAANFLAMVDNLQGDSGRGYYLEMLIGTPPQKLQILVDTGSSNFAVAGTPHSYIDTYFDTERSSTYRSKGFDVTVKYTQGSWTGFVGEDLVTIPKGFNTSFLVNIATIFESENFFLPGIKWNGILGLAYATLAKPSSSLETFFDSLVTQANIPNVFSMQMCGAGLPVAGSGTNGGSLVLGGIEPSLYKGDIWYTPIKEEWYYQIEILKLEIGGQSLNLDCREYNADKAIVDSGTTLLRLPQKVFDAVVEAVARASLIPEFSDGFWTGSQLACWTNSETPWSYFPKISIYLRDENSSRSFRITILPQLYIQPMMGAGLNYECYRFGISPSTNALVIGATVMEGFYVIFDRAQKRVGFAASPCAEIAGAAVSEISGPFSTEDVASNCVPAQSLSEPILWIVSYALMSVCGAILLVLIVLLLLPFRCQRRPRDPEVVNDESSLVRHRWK
Sequence of Recombinant Cat D (P07339 65-412): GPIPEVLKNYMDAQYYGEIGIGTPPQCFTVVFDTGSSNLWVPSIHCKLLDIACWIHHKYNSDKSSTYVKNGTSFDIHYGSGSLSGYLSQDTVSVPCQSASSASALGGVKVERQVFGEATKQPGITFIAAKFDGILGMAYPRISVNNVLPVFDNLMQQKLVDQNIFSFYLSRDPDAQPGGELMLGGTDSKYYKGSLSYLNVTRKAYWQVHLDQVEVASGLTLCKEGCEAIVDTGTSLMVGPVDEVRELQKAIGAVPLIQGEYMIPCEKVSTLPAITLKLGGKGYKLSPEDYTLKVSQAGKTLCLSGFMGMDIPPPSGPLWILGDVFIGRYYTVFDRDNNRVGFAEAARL
Sequence of human recombinant BACE1 (P56817 46-501): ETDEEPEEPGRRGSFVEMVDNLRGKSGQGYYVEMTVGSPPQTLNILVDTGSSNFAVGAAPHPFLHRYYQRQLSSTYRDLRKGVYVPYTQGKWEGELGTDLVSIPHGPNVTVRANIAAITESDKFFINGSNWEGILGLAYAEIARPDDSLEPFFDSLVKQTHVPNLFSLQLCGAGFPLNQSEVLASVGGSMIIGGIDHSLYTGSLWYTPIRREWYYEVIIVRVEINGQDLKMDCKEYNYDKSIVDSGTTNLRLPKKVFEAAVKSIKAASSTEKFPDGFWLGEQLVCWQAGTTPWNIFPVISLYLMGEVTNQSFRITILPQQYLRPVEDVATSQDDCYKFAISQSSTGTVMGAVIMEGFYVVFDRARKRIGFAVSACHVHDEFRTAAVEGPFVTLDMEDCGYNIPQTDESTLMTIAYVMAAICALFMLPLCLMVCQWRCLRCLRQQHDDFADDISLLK

IC50 (human recombinant BACE2) [µM] | IC50 (Recombinant Cat D) [µM] | IC50 [1] [µM] | IC50 (human recombinant BACE1) [µM] | SMILES
0.342 | 389 | 0.259 | 0.0236 | C#C[C@H](C)Oc1cnc(C(=O)Nc2cc(F)c(F)c([C@@]3(C)N=C(N)S[C@@]4(C(F)F)C[C@@H]34)c2)c(C)c1 [Example 647, N-(3-((1S,5S,6S)-3-amino-1-(difluoromethyl)-5-methyl-2-thia-4-azabicyclo[4.1.0]hept-3-en-5-yl)-4,5-difluorophenyl)-3-methyl-5-(((1S)-1-methyl-2-propyn-1-yl)oxy)-2-pyridinecarboxamide]
0.284 | 803 | 0.131 | 0.0646 | C#C[C@H](C)Oc1cnc(C(=O)Nc2ccc(F)c([C@@]3(C)N=C(N)S[C@@]4(COC)C[C@H]43)c2)c(C)c1 [Example 649, N-(3-((1S,5S,6S)-3-amino-1-(methoxymethyl)-5-methyl-2-thia-4-azabicyclo[4.1.0]hept-3-en-5-yl)-4-fluorophenyl)-3-methyl-5-(((1S)-1-methyl-2-propyn-1-yl)oxy)-2-pyridinecarboxamide]
0.556 | 777 | 0.344 | 0.0389 | C#C[C@H](C)Oc1cnc(C(=O)Nc2cc(F)c(F)c([C@@]3(C)N=C(N)S[C@@]4(COC)C[C@H]43)c2)c(C)c1 [Example 650, N-(3-((1S,5S,6S)-3-amino-1-(methoxymethyl)-5-methyl-2-thia-4-azabicyclo[4.1.0]hept-3-en-5-yl)-4,5-difluorophenyl)-3-methyl-5-(((1S)-1-methyl-2-propyn-1-yl)oxy)-2-pyridinecarboxamide]
0.397 | 1030 | 0.139 | 0.0589 | C#C[C@H](C)Oc1cnc(C(=O)Nc2ccc(F)c([C@@]3(C)N=C(N)S[C@@]4(CF)C[C@H]43)c2)c(C)c1 [Example 651, N-(3-((1S,5S,6S)-3-amino-1-(fluoromethyl)-5-methyl-2-thia-4-azabicyclo[4.1.0]hept-3-en-5-yl)-4-fluorophenyl)-3-methyl-5-(((1S)-1-methyl-2-propyn-1-yl)oxy)-2-pyridinecarboxamide]
0.142 | > 400 | 0.0256 | 0.00756 | Cc1cc(OCc2ncco2)cnc1C(=O)Nc1ccc(F)c([C@@]2(C)N=C(N)S[C@@]3(CF)C[C@H]32)c1 [Example 652, N-(3-((1S,5S,6S)-3-amino-1-(fluoromethyl)-5-methyl-2-thia-4-azabicyclo[4.1.0]hept-3-en-5-yl)-4-fluorophenyl)-3-methyl-5-(1,3-oxazol-2-ylmethoxy)-2-pyridinecarboxamide]

Further lines, the compound ahead of its results:

SMILES | IC50 (human recombinant BACE2) [µM] | IC50 (Recombinant Cat D) [µM] | IC50 [1] [µM] | IC50 (human recombinant BACE1) [µM]
C#CCOc1cnc2c(Nc3cnc(F)c([C@@]4(C)N=C(N)S[C@H]5C[C@H]54)c3)nccc2n1 [Example 639, (1S,5S,6S)-5-(2-fluoro-5-((2-(prop-2-yn-1-yloxy)pyrido[3,4-b]pyrazin-5-yl)amino)pyridin-3-yl)-5-methyl-2-thia-4-azabicyclo[4.1.0]hept-3-en-3-amine] | 0.0401 | 381 | 0.00213 | 0.00157
C[C@]1(c2cc(Nc3nccc4cc(C#N)cnc34)cnc2F)N=C(N)S[C@H]2C[C@H]21 [Example 641, 8-((5-((1S,5S,6S)-3-amino-5-methyl-2-thia-4-azabicyclo[4.1.0]hept-3-en-5-yl)-6-fluoro-3-pyridinyl)amino)-1,7-naphthyridine-3-carbonitrile] | 0.00815 | 1430 | 0.00799 | 0.0188
Cc1cc(OCc2ncco2)cnc1C(=O)Nc1ccc(F)c([C@@]2(C)N=C(N)S[C@@]3(C(F)F)C[C@@H]23)c1 [Example 642, N-(3-((1S,5S,6S)-3-amino-1-(difluoromethyl)-5-methyl-2-thia-4-azabicyclo[4.1.0]hept-3-en-5-yl)-4-fluorophenyl)-3-methyl-5-(1,3-oxazol-2-ylmethoxy)-2-pyridinecarboxamide] | 0.114 | 434 | 0.0351 | 0.00642
Cc1cc(OCc2ncco2)cnc1C(=O)Nc1cc(F)c(F)c([C@@]2(C)N=C(N)S[C@@]3(C(F)F)C[C@@H]23)c1 [Example 643, N-(3-((1S,5S,6S)-3-amino-1-(difluoromethyl)-5-methyl-2-thia-4-azabicyclo[4.1.0]hept-3-en-5-yl)-4,5-difluorophenyl)-3-methyl-5-(1,3-oxazol-2-ylmethoxy)-2-pyridinecarboxamide] | 0.134 | 751 | 0.0328 | 0.00246
COC[C@]12C[C@H]1[C@@](C)(c1cc(NC(=O)c3ncc(OCc4ncco4)cc3C)ccc1F)N=C(N)S2 [Example 644, N-(3-((1S,5S,6S)-3-amino-1-(methoxymethyl)-5-methyl-2-thia-4-azabicyclo[4.1.0]hept-3-en-5-yl)-4-fluorophenyl)-3-methyl-5-(1,3-oxazol-2-ylmethoxy)-2-pyridinecarboxamide] | 0.207 | > 400 | 0.0137 | 0.014
COC[C@]12C[C@H]1[C@@](C)(c1cc(NC(=O)c3ncc(OCc4ncco4)cc3C)cc(F)c1F)N=C(N)S2 [Example 646, N-(3-((1S,5S,6S)-3-amino-1-(methoxymethyl)-5-methyl-2-thia-4-azabicyclo[4.1.0]hept-3-en-5-yl)-4,5-difluorophenyl)-3-methyl-5-(1,3-oxazol-2-ylmethoxy)-2-pyridinecarboxamide] | 0.211 | 865 | 0.013 | 0.00656
C#CCOc1cnc2c(Nc3cnc(F)c([C@@]4(C)N=C(N)S[C@@]5(C(F)F)C[C@@H]45)c3)nccc2n1 [Example 653, N-(5-((1S,5S,6S)-3-amino-1-(difluoromethyl)-5-methyl-2-thia-4-azabicyclo[4.1.0]hept-3-en-5-yl)-6-fluoro-3-pyridinyl)-2-(2-propyn-1-yloxy)pyrido[3,4-b]pyrazin-5-amine] | 0.0192 | 260 | 0.00151 | 0.000544
C[C@]1(c2cc(Nc3nccc4nc(OCc5ncco5)cnc34)cnc2F)N=C(N)S[C@@]2(C(F)F)C[C@@H]12 [Example 654, N-(5-((1S,5S,6S)-3-amino-1-(difluoromethyl)-5-methyl-2-thia-4-azabicyclo[4.1.0]hept-3-en-5-yl)-6-fluoro-3-pyridinyl)-2-(1,3-oxazol-2-ylmethoxy)pyrido[3,4-b]pyrazin-5-amine] | 0.0291 | 861 | 0.00166 | 0.000931
C[C@]1(c2cc(NC(=O)c3ccc(Cl)cn3)cnc2F)N=C(N)S[C@@]2(C(F)F)C[C@@H]12 [Example 655, N-(5-((1S,5S,6S)-3-amino-1-(difluoromethyl)-5-methyl-2-thia-4-azabicyclo[4.1.0]hept-3-en-5-yl)-6-fluoro-3-pyridinyl)-5-chloro-2-pyridinecarboxamide] | < 0.00203 | 1720 | 0.006 | 0.00455
CC(C)NC(=O)c1cnc2c(Nc3cnc(F)c([C@@]4(C)N=C(N)S[C@@]5(C(F)F)C[C@@H]45)c3)nccc2c1 [Example 656, 8-((5-((1S,5S,6S)-3-amino-1-(difluoromethyl)-5-methyl-2-thia-4-azabicyclo[4.1.0]hept-3-en-5-yl)-6-fluoro-3-pyridinyl)amino)-N-(1-methylethyl)-1,7-naphthyridine-3-carboxamide] | 2.35 | 998 | 0.624 | 0.387
